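In this assay, cells in 96-well plates receive the compound at five concentrations for 48 hours. Endpoints are linearly interpolated between the surrounding concentrations. GI50 marks 50% less growth.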 The source made the active and inactive calls. No stated cut-off is given here; in the data, active = GI50 up to about 1.1 µM and inactive = higher.
Key:
Assay in all cases: NCI anticancer screen, dose series, 48 h
A498 = test system: A498
ACHN = test system: ACHN
HCC 2998 = test system: HCC 2998
HCT-15 = test system: HCT-15
HL-60 = test system: HL-60
HOP-62 = test system: HOP-62
M14 = test system: M14
Malme-3M = test system: Malme-3M
OVCAR-3 = test system: OVCAR-3
OVCAR-5 = test system: OVCAR-5
OVCAR-8 = test system: OVCAR-8
SF-295 = test system: SF-295
SK-MEL-5 = test system: SK-MEL-5
SN12C = test system: SN12C
SNB-19 = test system: SNB-19
SNB-75 = test system: SNB-75
NCI-H226 = test system: NCI-H226

Structure (SMILES) | GI50 (A498) | GI50 (ACHN) | GI50 (HCC 2998) | GI50 (HCT-15) | GI50 (HL-60) | GI50 (HOP-62) | GI50 (M14) | GI50 (Malme-3M) | GI50 (OVCAR-3) | GI50 (OVCAR-5) | GI50 (OVCAR-8) | GI50 (SF-295) | GI50 (SK-MEL-5) | GI50 (SN12C) | GI50 (SNB-19) | GI50 (SNB-75) | GI50 (NCI-H226)
CN(C)CCC(/C=C/c1ccccc1)=N\Nc1ccc(Cl)cc1 | 7.66 µM (inactive) | 2.23 µM (inactive) | 1.69 µM (inactive) | 3.01 µM | 2.18 µM (inactive) | 1.8 µM (inactive) | 3.18 µM (inactive) | 12.7 µM (inactive) | 8.69 µM (inactive) | 1.08 µM (active) | 2.98 µM (inactive) | 3.99 µM (inactive) | 14.7 µM (inactive) | 2.29 µM (inactive) | 11 µM (inactive) | 4.31 µM (inactive) | 
O=[N+]([O-])c1ccc2nc(/C(=N/Nc3ccccc3)C(O)c3ccc(Cl)cc3Cl)c(O)nc2c1 (stereo not given) | > 100 µM (inactive) | > 100 µM (inactive) | > 100 µM (inactive) | > 100 µM | 21 µM (inactive) | > 100 µM (inactive) | > 100 µM (inactive) | > 100 µM (inactive) | > 100 µM (inactive) | > 100 µM (inactive) | > 100 µM (inactive) | > 100 µM (inactive) | 21.8 µM (inactive) | > 100 µM (inactive) |  | > 100 µM (inactive) | > 100 µM (inactive)
CCc1cccc(C)c1NC(=O)CC1C(=O)Nc2ccccc2[S+]1[O-] (stereo not given) |  | 71.6 µM (inactive) | 56.4 µM (inactive) | 35.6 µM | 28.4 µM (inactive) | 71.4 µM (inactive) | 31.2 µM (inactive) | 28.5 µM (inactive) | 57.3 µM (inactive) | > 100 µM (inactive) | 46 µM (inactive) | 32.1 µM (inactive) |  | 50 µM (inactive) | 48.4 µM (inactive) | 33.5 µM (inactive) | > 100 µM (inactive)
COC(=O)C1C=CCON2CCc3c(n(C)c4ccccc34)C12 (stereo not given) | 46.6 µM (inactive) | > 100 µM (inactive) | > 100 µM (inactive) | > 100 µM | > 100 µM (inactive) | > 100 µM (inactive) | > 100 µM (inactive) | > 100 µM (inactive) | > 100 µM (inactive) | > 100 µM (inactive) |  | > 100 µM (inactive) | > 100 µM (inactive) | > 100 µM (inactive) | > 100 µM (inactive) | 88.1 µM (inactive) | > 100 µM (inactive)
O=C1C(c2ccc([N+](=O)[O-])cc2)=[N+]([O-])c2ccccc21 |  | 16.8 µM (inactive) |  | 17.3 µM | 25.8 µM (inactive) | 32.4 µM (inactive) | 28.7 µM (inactive) | 36.6 µM (inactive) | 19.9 µM (inactive) | 22.8 µM (inactive) | 4.31 µM (inactive) | 42.1 µM (inactive) | 16.3 µM (inactive) | 24.5 µM (inactive) | < 0.01 µM (active) | 30.6 µM (inactive) | 34.9 µM (inactive)
S=C(N/N=C/c1ccco1)NC12CC3CC(CC(C3)C1)C2 | > 100 µM (inactive) | > 100 µM (inactive) | 74.8 µM (inactive) | 47.4 µM |  | > 100 µM (inactive) | > 100 µM (inactive) | > 100 µM (inactive) | 84.1 µM (inactive) | > 100 µM (inactive) | > 100 µM (inactive) | > 100 µM (inactive) | 73.8 µM (inactive) | > 100 µM (inactive) | > 100 µM (inactive) | 83.8 µM (inactive) | > 100 µM (inactive)
CNc1nnnn1C1OC(CO)C(O)C1O (stereo not given) | > 100 µM (inactive) | > 100 µM (inactive) | > 100 µM (inactive) | > 100 µM |  | > 100 µM (inactive) | > 100 µM (inactive) | > 100 µM (inactive) | > 100 µM (inactive) | > 100 µM (inactive) | > 100 µM (inactive) | > 100 µM (inactive) | > 100 µM (inactive) | > 100 µM (inactive) |  | > 100 µM (inactive) | > 100 µM (inactive)
O=C(O)C1=C(C(=O)Nc2ccc(NC(=O)C3=C(C(=O)O)C4C=CC3C4)cc2)C2C=CC1C2 | > 100 µM (inactive) | > 100 µM (inactive) | > 100 µM (inactive) | > 100 µM | > 100 µM (inactive) | > 100 µM (inactive) | > 100 µM (inactive) | > 100 µM (inactive) | > 100 µM (inactive) | > 100 µM (inactive) | > 100 µM (inactive) | > 100 µM (inactive) | > 100 µM (inactive) | > 100 µM (inactive) | > 100 µM (inactive) | > 100 µM (inactive) | 
CCCCOC(=O)NC(=O)c1cn(C2CCCCC2)c(=O)[nH]c1=O | 17.1 µM (inactive) | 32.2 µM (inactive) | > 100 µM (inactive) | > 100 µM | > 100 µM (inactive) | 25.3 µM (inactive) | 50.7 µM (inactive) | 31 µM (inactive) | 40.6 µM (inactive) | > 100 µM (inactive) | 42.9 µM (inactive) | 54.3 µM (inactive) |  | > 100 µM (inactive) | 26.5 µM (inactive) |  | 20.3 µM (inactive)

From ChEMBL document CHEMBL1201862, “PubChem BioAssay data set” (2004)
